These results are taken from patent US6756359B2, “C12 modified erythromycin macrolides and ketolides having antibacterial activity” (Chiron Corporation, priority 2001, dated 2004).

Holding throughout (assay): Antibacterial activity in vitro, MIC by broth microdilution
For assay [1], the system named is H. influenzae Hain_49247. Format: cell-based, Haemophilus influenzae. Particulars: Table 5, Strain ID M: H. influenzae Hain_49247; unit assumed. On the procedure: (§1) Representative compounds of the present invention were assayed in vitro for antibacterial activity against the bacterial isolates listed in Table 1 as follows:
(§2) The bacterial isolates listed in Table 1 were cultivated from −70° C. frozen stocks by two consecutive overnight passages (P1, P2) at 35° C. on 5% blood agar (Remel, Lenexa, Kans.). Chocolate agar (Remel) is used for Haemophilus influenzae. H. influenzae and Streptococcus pneumoniae are incubated in 5-10% CO2.
(§3) To determine the amount of solvent to be used to give the desired final concentration, the formula “weight obtained in mg/final concentration in mg/mL” will be used. It will give the amount of solvent in mL needed to be added to give the desired concentration. For example, if 2.5 mg/mL is the desired concentration and the weight of compound is 13.7 mg, then the amount of solvent to be added is 3.94 mL (13.7 mg/2.5 mg/mL=3.94 mLs). Methanol is used as the solvent to dissolve the test compounds. Further dilution of stock is done in sterile, deioinzed water. Drug stocks are kept frozen at −70° C., protected from light.
(§4) MICs are determined by the broth microdilution method in accordance with the NCCLS guidelines. In brief, organism suspensions are adjusted to a 0.5 McFarland standard to yield a final inoculum between 3×10^5 and 7×10^5 CFU/mL. Drug dilutions and inocula are made in sterile, cation adjusted Mueller-Hinton Broth (CAMHB) (Remel) for all but S. pneumoniae [CAMHB with 2-5% lysed horse blood (Remel)] and H. influenzae [Haemophilus Test Medium (Remel)]. An inoculum volume of 100 μl is added to wells containing 100 μl of broth with 2-fold serial dilutions of drug. All inoculated microdilution trays are incubated in ambient air at 35° C. for 18-24 hours, except for S. pneumoniae, and H. influenzae (both at 5-10% CO2).
(§5) Following appropriate incubation, the MIC is determined and the MIC is defined as the lowest concentration of the drug that prevented visible growth.

Assay [2] relates to S. pneumoniae Stpn_280-962 Pen S. It counts as cell-based, Streptococcus pneumoniae. As to conditions: Table 5, Strain ID H: S. pneumoniae Stpn_280-962. As to the method: as §1, §2, §3, §4, §5
The subject of assay [3] is S. pneumoniae Stpn_Mef S 3427. Format: cell-based, Streptococcus pneumoniae. Particulars: Table 5, Strain ID L: S. pneumoniae Stpn_Mef S 3427; unit assumed. As to the method:
as §1, §2, §3, §4, §5

Assay [4] concerns S. pneumoniae Stpn_49619. Format: cell-based, Streptococcus pneumoniae. Particulars: Table 5, Strain ID F: S. pneumoniae Stpn_49619. As to the method: as §1, §2, §3, §4, §5
Assay [5] concerns S. pneumoniae Stpn_297-749 Pen R. Format: cell-based, Streptococcus pneumoniae. As to conditions: Table 5, Strain ID G: S. pneumoniae Stpn_297-749. On the procedure: as §1, §2, §3, §4, §5
The test system of assay [6] is S. pneumoniae Stpn_Erm S 4297. Format: cell-based, Streptococcus pneumoniae. Particulars: Table 5, Strain ID J: S. pneumoniae Stpn_Erm S 4297. As to the method: as §1, §2, §3, §4, §5
Assay [7] has as its system S. pneumoniae Stpn_Erm 6849. It counts as cell-based, Streptococcus pneumoniae. As to conditions: Table 5, Strain ID I: S. pneumoniae Stpn_Erm 6849. As to the method: as §1, §2, §3, §4, §5
The test system of assay [8] is S. pneumoniae Stpn_Mef 5654. Format: cell-based, Streptococcus pneumoniae. As to conditions: Table 5, Strain ID K: S. pneumoniae Stpn_Mef 5654; unit assumed. As to the method:
as §1, §2, §3, §4, §5

The subject of assay [9] is S. epidermidis Step_14990. Format: cell-based. As to conditions: Table 5, Strain ID B: S. epidermidis Step_14990; unit assumed. As to the method: as §1, §2, §3, §4, §5
The subject of assay [10] is S. epidermidis Step_f50654 Pen S. It counts as cell-based. Particulars: Table 5, Strain ID C: S. epidermidis Step_f50654; unit assumed. As to the method:
as §1, §2, §3, §4, §5

In assay [11] the test system is S. aureus Stau_29213. Format: cell-based. Particulars: Table 5, Strain ID A: S. aureus Stau_29213; unit assumed. As to the method:
as §1, §2, §3, §4, §5

The test system of assay [12] is S. pyogenes Stpy_8668. It counts as cell-based. As to conditions: Table 5, Strain ID E: S. pyogenes Stpy_8668. On the procedure:
as §1, §2, §3, §4, §5

Assay [13] deals with E. faecalis Enfa_29212. It counts as cell-based. Particulars: Table 5, Strain ID D: E. faecalis Enfa_29212; unit assumed. As to the method: as §1, §2, §3, §4, §5

Values after ≈ are worked out from the molar mass of the structure shown.

Turning to `CC[C@H]1OC(=O)[C@H](C)C(=O)[C@H](C)[C@@H](OC2O[C@H](C)C[C@H](N(C)C)[C@H]2O)[C@@](C)(OC)C[C@@H](C)C(=O)[C@H](C)[C@H]2N(CCCCn3cnc(-c4ccncc4)c3)C(=O)O[C@]12CC` (stereo partly drawn) [Example 28, (3aS,4R,7R,9R,10R,11S,13R,15R,15aR)-3a,4-diethyl-11-methoxy-7,9,11,13,15-pentamethyl-2,6,8,14-tetraoxo-1-[4-(4-pyridin-4-yl-1H-imidazol-1-yl)butyl]tetradecahydro-2H-oxacyclotetradecino[4,3-d][1,3]oxazol-10-yl 3,4,6-trideoxy-3-(dimethylamino)-D-xylo-hexopyranoside], the MIC in assay [1] is 3.13 µg/mL (≈ 3.79 µM); in assay [2] it was “≦0.05”; in [3], 0.2 µg/mL (≈ 0.242 µM); in [4], “≦0.05”; in assay [5] it was “≦0.05”; in [6] (unit assumed), 0.4 µg/mL (≈ 0.484 µM). For the same molecule, the MIC was over 50 µg/mL in assay [7] (unit assumed); 0.78 µg/mL (≈ 0.944 µM) in assay [8]; 0.4 µg/mL (≈ 0.484 µM) in [9]; 0.4 µg/mL (≈ 0.484 µM) in assay [10]; 0.4 µg/mL (≈ 0.484 µM) in assay [11]; “≦0.05” in assay [12]. The molecule further registered an MIC in assay [13] of 0.1 µg/mL (≈ 0.121 µM).
`CC[C@H]1OC(=O)[C@H](C)C(=O)[C@H](C)[C@@H](OC2O[C@H](C)C[C@H](N(C)C)[C@H]2O)[C@@](C)(OC)C[C@@H](C)C(=O)[C@H](C)[C@H]2N(CCCOc3cccc(-c4cccnc4)c3)C(=O)O[C@]12CC` (stereo partly drawn) [Example 35, (3aS,4R,7R,9R,10R,11S,13R,15R,15aR)-3a,4-diethyl-11-methoxy-7,9,11,13,15-pentamethyl-2,6,8,14-tetraoxo-1-[3-(3-pyridin-3-ylphenoxy)propyl]-tetradecahydro-2H-oxacyclotetradecino[4,3-d][1,3]oxazol-10-yl 3,4,6-trideoxy-3-(dimethylamino)-D-xylo-hexopyranoside]: the MIC in assay [1] was 0.2 µg/mL (≈ 0.239 µM); in assay [2] it was “≦0.05”; in assay [3] it was 0.78 µg/mL (≈ 0.931 µM); in assay [4] (unit assumed), 6.25 µg/mL (≈ 7.46 µM); in assay [5] it was “≦0.05”; in assay [6] (unit assumed) it was 3.13 µg/mL (≈ 3.73 µM). In addition, the MIC result is “≦0.05” in assay [7]; 0.78 µg/mL (≈ 0.931 µM) in assay [8]; 0.78 µg/mL (≈ 0.931 µM) in assay [9]; 0.78 µg/mL (≈ 0.931 µM) in [10]; 0.78 µg/mL (≈ 0.931 µM) in assay [11]; 0.2 µg/mL (≈ 0.239 µM) in assay [12] (unit assumed). Also, the MIC in assay [13] was 0.2 µg/mL (≈ 0.239 µM).
For the molecule `C=C[C@]12OC(=O)N(CCCC(C)(C)n3cnc(-c4cccnc4)c3)[C@@H]1[C@@H](C)C(=O)[C@H](C)C[C@](C)(OC)[C@H](OC1O[C@H](C)C[C@H](N(C)C)[C@H]1O)[C@@H](C)C(=O)[C@@H](C)C(=O)O[C@@H]2CC` (stereo partly drawn) [Example 50, (3aS,4R,7R,9R,10R,11S,13R,15R,15aR)-4-ethyl-11-methoxy-7,9,11,13,15-pentamethyl-1-[4-methyl-4-(4-pyridin-3-yl-1H-imidazol-1-yl)pentyl]-2,6,8,14-tetraoxo-3a-vinyltetradecahydro-2H-oxacyclotetradecino[4,3-d][1,3]oxazol-10-yl 3,4,6-trideoxy-3-(dimethylamino)-D-xylo-hexopyranoside], the MIC in assay [1] was 6.25 µg/mL (≈ 7.33 µM); in assay [2], “≦0.05”; in [3] it was 0.1 µg/mL (≈ 0.117 µM); in assay [4], “≦0.05”; in assay [5], “≦0.05”; in [6], “≦0.05”. Besides, the MIC in assay [7] (unit assumed) is 0.1 µg/mL (≈ 0.117 µM); in assay [8], 0.4 µg/mL (≈ 0.469 µM); in assay [9], 0.4 µg/mL (≈ 0.469 µM); in [10] it was 0.2 µg/mL (≈ 0.235 µM); in [11], 0.4 µg/mL (≈ 0.469 µM); in assay [12], “≦0.05”. Also, the MIC in [13] worked out at 0.2 µg/mL (≈ 0.235 µM).
Consider `CC[C@H]1OC(=O)[C@H](C)C(=O)[C@H](C)[C@@H](OC2O[C@H](C)C[C@H](N(C)C)[C@H]2O)[C@@](C)(OC)C[C@@H](C)C(=O)[C@H](C)[C@H]2N(CCCC(C)(C)n3cnc4cccnc43)C(=O)O[C@]12CC` (stereo partly drawn) [Example 38, (3aS,4R,7R,9R,10R,11S,13R,15R,15aR)-3a,4-diethyl-1-[4-(3H-imidazol[4,5-b]pyridin-3-yl)-4-methylpentyl]-11-methoxy-7,9,11,13,15-pentamethyl-2,6,8,14-tetraoxotetradecahydro-2H-oxacyclotetradecino[4,3-d][1,3]oxazol-10-yl 3,4,6-trideoxy-3-(dimethylamino)-D-xylo-hexopyranoside], for which the MIC in [1] was 6.25 µg/mL (≈ 7.55 µM); in assay [2], “≦0.05”; in [3] it was 0.1 µg/mL (≈ 0.121 µM); in assay [4], “≦0.05”; in [5], “≦0.05”; in [6] (unit assumed), 0.1 µg/mL (≈ 0.121 µM). For the same molecule, the MIC in assay [7] (unit assumed) is 0.4 µg/mL (≈ 0.483 µM); in [8], 0.78 µg/mL (≈ 0.942 µM); in assay [9], 0.2 µg/mL (≈ 0.242 µM); in assay [10], 0.2 µg/mL (≈ 0.242 µM); in assay [11], 0.2 µg/mL (≈ 0.242 µM); in assay [12], “≦0.05”. In assay [13], this molecule registered an MIC of 0.1 µg/mL (≈ 0.121 µM).
As for `CC[C@H]1OC(=O)[C@@](C)(F)C(=O)[C@H](C)[C@@H](OC2O[C@H](C)C[C@H](N(C)C)[C@H]2O)[C@@](C)(OC)C[C@@H](C)C(=O)[C@H](C)[C@H]2N(CCCC(C)(C)n3cnc(-c4cccnc4)c3)C(=O)O[C@]12CC` (stereo partly drawn) [Example 32, (3aS,4R,7S,9R,10R,11S,13R,15R,15aR)-3a,4-diethyl-7-fluoro-11-methoxy-7,9,11,13,15-pentamethyl-1-[4-methyl-4-(4-pyridin-3-yl-1H-imidazol-1-yl)pentyl]-2,6,8,14-tetraoxotetradecahydro-2H-oxacyclotetradecino [4,3-d][1,3]oxazol-10-yl 3,4,6-trideoxy-3-(dimethylamino)-D-xylo-hexopyranoside], the MIC in assay [1] is 6.25 µg/mL (≈ 7.17 µM); in assay [2], “≦0.05”; in [3], 0.2 µg/mL (≈ 0.229 µM); in assay [4], “≦0.05”; in assay [5], “≦0.05”; in assay [6], “≦0.05”. Besides, the MIC in [7] (unit assumed) was 0.2 µg/mL (≈ 0.229 µM); in assay [8] it was 0.78 µg/mL (≈ 0.894 µM); in [9], 0.4 µg/mL (≈ 0.459 µM); in assay [10] it was 0.4 µg/mL (≈ 0.459 µM); in [11], 0.2 µg/mL (≈ 0.229 µM); in assay [12], “≦0.05”. The molecule also yielded an MIC in [13] of 0.02 µg/mL (≈ 0.0229 µM).
Consider `CC[C@H]1OC(=O)[C@H](C)C(=O)[C@H](C)[C@@H](OC2O[C@H](C)C[C@H](N(C)C)[C@H]2O)[C@@](C)(OC)C[C@@H](C)C(=O)[C@H](C)[C@H]2N(CCCC(C)(C)n3cnc4ncccc43)C(=O)O[C@]12CC` (stereo partly drawn) [Example 37, (3aS,4R,7R,9R,10R,11S,13R,15R,15aR)-3a,4-diethyl-1-[4-(1H-imidazo[4,5-b]pyridin-1-yl)-4-methylpentyl]-11-methoxy-7,9,11,13,15-pentamethyl-2,6,8,14-tetraoxotetradecahydro-2H-oxacyclotetradecino[4,3-d][1,3]oxazol-10-yl 3,4,6-trideoxy-3-(dimethylamino)-D-xylo-hexopyranoside], for which the MIC is 6.25 µg/mL (≈ 7.55 µM) in assay [1]; “≦0.05” in [2]; 0.2 µg/mL (≈ 0.242 µM) in [3]; “≦0.05” in assay [4]; “≦0.05” in assay [5]; 0.1 µg/mL (≈ 0.121 µM) in assay [6] (unit assumed). Further, the MIC is 0.4 µg/mL (≈ 0.483 µM) in assay [7] (unit assumed); 1.56 µg/mL (≈ 1.88 µM) in assay [8]; 0.2 µg/mL (≈ 0.242 µM) in [9]; 0.2 µg/mL (≈ 0.242 µM) in assay [10]; 0.4 µg/mL (≈ 0.483 µM) in [11]; “≦0.05” in assay [12]. The molecule further returned an MIC in assay [13] of 0.1 µg/mL (≈ 0.121 µM).
